Laboratory results: US8735414B2 (priority 2009, dated 2014)

What was measured:
[1] = test system: bicistronic HCV replicon (replicon RNA, GenBank Accession No. AJ242654); assay: HCV Replicon Assay; format: cell-based; conditions: Hepatitis C virus, 72 h, read-out: Replicon IC50

SMILES | IC50 [1] [nM] | melting point [°C]
C[C@H](NS(=O)(=O)c1ccc(-c2c(C#N)c3ccc(OC(F)(F)F)cc3n2C2CCCCC2)nc1)C1CC1 [compound 305, 6-[3-cyano-1-cyclohexyl-6-(trifluoromethoxy)-1H-indol-2-yl]-N-[(1S)-1-cyclopropylethyl]pyridine-3-sulfonamide] | < 500 | 195 to 197
CC(C)n1c(-c2ccc(S(=O)(=O)NC(CF)CF)cn2)c(C#N)c2ccc(C3CC3)cc21 [compound 83, 6-[3-cyano-6-cyclopropyl-1-(propan-2-yl)-1H-indol-2-yl]-N-(1,3-difluoropropan-2-yl)pyridine-3-sulfonamide] | < 500 | 184 to 190
Cc1ccc2c(C#N)c(-c3ncc(S(=O)(=O)NC(CF)CF)cn3)n(C3CCCCC3)c2c1 [compound 241, 2-(3-cyano-1-cyclohexyl-6-methyl-1H-indol-2-yl)-N-(1,3-difluoropropan-2-yl)pyrimidine-5-sulfonamide] | < 500 | 225 to 230
Cc1cc2c(cc1F)c(C(N)=O)c(-c1ccc(S(=O)(=O)NC(C)(C)C)cn1)n2C1CCC1 [compound 800, 2-[5-(tert-butylsulfamoyl)pyridin-2-yl]-1-cyclobutyl-5-fluoro-6-methyl-1H-indole-3-carboxamide] | < 500 | 189 to 193
CCc1cc2c(cc1F)c(C#N)c(-c1ccc(S(=O)(=O)N[C@@H](C)C(F)(F)F)cn1)n2-c1cccnc1 [compound 954, 6-[3-cyano-6-ethyl-5-fluoro-1-(pyridin-3-yl)-1H-indol-2-yl]-N-[(2S)-1,1,1-trifluoropropan-2-yl]pyridine-3-sulfonamide] | < 500 | 205 to 212
C[C@@H](NS(=O)(=O)c1ccc(-c2c(C#N)c3ccc(CF)cc3n2C2CCC2)nc1)C(F)(F)F [compound 319, 6-[3-cyano-1-cyclobutyl-6-(fluoromethyl)-1H-indol-2-yl]-N-[(2R)-1,1,1-trifluoropropan-2-yl]pyridine-3-sulfonamide] | 500 to 2000 | 200 to 213
CC(C)n1c(-c2ccc(S(=O)(=O)NC3CCC3)cn2)c(C#N)c2ccc(OC(F)F)cc21 [compound 2, 6-[3-cyano-6-(difluoromethoxy)-1-(propan-2-yl)-1H-indol-2-yl]-N-cyclobutylpyridine-3-sulfonamide] | < 500 | 130 to 132
C[C@H](NS(=O)(=O)c1ccc(-c2c(C#N)c3cc(F)ccc3n2C2CCC2)nc1)C1CC1 [compound 142, 6-(3-cyano-1-cyclobutyl-5-fluoro-1H-indol-2-yl)-N-[(1S)-1-cyclopropylethyl]pyridine-3-sulfonamide] | < 500 | 128 to 130
CC(C)n1c(-c2ccc(NS(=O)(=O)C(C)(C)C)nc2)c(C#N)c2ccc(OC(F)F)cc21 [compound 299, N-{5-[3-cyano-6-(difluoromethoxy)-1-(propan-2-yl)-1H-indol-2-yl]pyridin-2-yl}-2-methylpropane-2-sulfonamide] | 2000 to 5000 | 263 to 264
CCc1cc2c(cc1F)c(C#N)c(-c1ccc(S(=O)(=O)NC3(C(F)(F)F)CC3)cn1)n2C1CCCC1 [compound 637, 6-(3-cyano-1-cyclopentyl-6-ethyl-5-fluoro-1H-indol-2-yl)-N-[1-(trifluoromethyl)cyclopropyl]pyridine-3-sulfonamide] | < 500 | 198 to 199
Cc1ccc2c(C#N)c(-c3ccc(S(=O)(=O)NC(CF)CF)cn3)n(CC3CC3)c2c1 [compound 81, 6-[3-cyano-1-(cyclopropylmethyl)-6-methyl-1H-indol-2-yl]-N-(1,3-difluoropropan-2-yl)pyridine-3-sulfonamide] | < 500 | 175 to 182
Cc1cc2c(cc1F)c(C(N)=O)c(-c1ccc(S(=O)(=O)NC(C)(C)C(F)(F)F)cn1)n2C1CCCCC1 [compound 714, 1-cyclohexyl-5-fluoro-6-methyl-2-{5-[(1,1,1-trifluoro-2-methylpropan-2-yl)sulfamoyl]pyridin-2-yl}-1H-indole-3-carboxamide] | < 500 | 245 to 250
Cc1cnc(-n2c(-c3ccc(S(=O)(=O)N[C@@H](C)C(F)(F)F)cn3)c(C(N)=O)c3cc(F)c(C)cc32)cn1 [compound 904, 5-fluoro-6-methyl-1-(5-methylpyrazin-2-yl)-2-(5-{[(2S)-1,1,1-trifluoropropan-2-yl]sulfamoyl}pyridin-2-yl)-1H-indole-3-carboxamide] | < 500 | 202 to 208
Cc1cc2c(cc1F)c(C#N)c(-c1ccc(S(=O)(=O)N[C@@H](C)C(F)(F)F)cn1)n2-c1ccsc1 [compound 992, 6-[3-cyano-5-fluoro-6-methyl-1-(thiophen-3-yl)-1H-indol-2-yl]-N-[(2S)-1,1,1-trifluoropropan-2-yl]pyridine-3-sulfonamide] | < 500 | 196 to 203
N#Cc1c(-c2ccc(NS(=O)(=O)C3CC3)cn2)n(C2CCCCC2)c2ccc(Cl)cc12 [compound 298, N-[6-(5-chloro-3-cyano-1-cyclohexyl-1H-indol-2-yl)pyridin-3-yl]cyclopropanesulfonamide] | 500 to 2000 | 230 to 235
C[C@@H](NS(=O)(=O)c1ccc(-c2c(C#N)c3ccc(Cl)cc3n2C2CCC2)nc1)C(F)(F)F [compound 222, 6-(6-chloro-3-cyano-1-cyclobutyl-1H-indol-2-yl)-N-[(2R)-1,1,1-trifluoropropan-2-yl]pyridine-3-sulfonamide] | < 500 | 202 to 206
N#Cc1c(-c2ccc(S(=O)(=O)NC(CF)CF)cn2)n(C2CCC2)c2ccc(OC(F)F)cc12 [compound 32, 6-[3-cyano-1-cyclobutyl-5-(difluoromethoxy)-1H-indol-2-yl]-N-(1,3-difluoropropan-2-yl)pyridine-3-sulfonamide] | < 500 | 166 to 172
COc1ccc2c(C#N)c(-c3ccc(S(=O)(=O)N[C@H](C)C(F)(F)F)cn3)n(C3CCC3)c2c1 [compound 428, 6-(3-cyano-1-cyclobutyl-6-methoxy-1H-indol-2-yl)-N-[(2R)-1,1,1-trifluoropropan-2-yl]pyridine-3-sulfonamide] | < 500 | 206 to 212
Cc1ccc2c(C#N)c(-c3ccc(S(=O)(=O)N[C@@H](C)C(F)(F)F)cn3)n(C3CCC3)c2c1 [compound 351, 6-(3-cyano-1-cyclobutyl-6-methyl-1H-indol-2-yl)-N-[(2S)-1,1,1-trifluoropropan-2-yl]pyridine-3-sulfonamide] | < 500 | 203 to 208
CCn1c(-c2ccc(N(CCO)S(=O)(=O)C3CC3)nc2)c(C#N)c2ccc(OC(C)C)cc21 [compound 293, N-{5-[3-cyano-1-ethyl-6-(propan-2-yloxy)-1H-indol-2-yl]pyridin-2-yl}-N-(2-hydroxyethyl)cyclopropanesulfonamide] | 500 to 2000 | 212 to 214
CCc1cc2c(cc1F)c(C(N)=O)c(-c1ccc(S(=O)(=O)N[C@@H](C)C(F)(F)F)cn1)n2-c1cnccn1 [compound 994, 6-ethyl-5-fluoro-1-(pyrazin-2-yl)-2-(5-{[(2S)-1,1,1-trifluoropropan-2-yl]sulfamoyl}pyridin-2-yl)-1H-indole-3-carboxamide] | < 500 | 120 to 127
